Laboratory results reported in PubChem BioAssay AID330 (DTP/NCI, 2004).
Where “and” joins values, the source holds several entries; their conditions need not be identical. Identical values can stand only once. Inconclusive results and toxic doses are left out. How the source made its calls: active means survival T/C of 150% or more; inactive means T/C below 125% in these data.

Tested on: P388 leukemia ip, CD2F1 mice, survival T/C
Assay: NCI In Vivo Anticancer Drug Screen. Data for tumor model P388 Leukemia (intraperitoneal) in CD2F1 (CDF1) mice
Conditions: endpoint: median survival time, higher = longer survival
Summary of the method: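 Mice carrying the transplanted tumor received test compound or vehicle. Survival was recorded in each group, and the value is the treated-group measurement divided by that of the vehicle-treated control group.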

[1] = dose: 50.0 mg/kg/injection, schedule: Q01DX005 (ip), vehicle: saline with Tween-80
[2] = dose: 100.0 mg/kg/injection, schedule: Q01DX005 (ip), vehicle: saline with Tween-80
[3] = dose: 200.0 mg/kg/injection, schedule: Q01DX005 (ip), vehicle: saline with Tween-80
[4] = dose: 50.0 mg/kg/injection, schedule: Q01DX005 (ip), vehicle: Klucel (hydroxypropylcellulose) (HPC)
[5] = dose: 100.0 mg/kg/injection, schedule: Q01DX005 (ip), vehicle: Klucel (hydroxypropylcellulose) (HPC)
[6] = dose: 100.0 mg/kg/injection, schedule: Q01DX001 (ip), vehicle: saline with Tween-80
[7] = dose: 200.0 mg/kg/injection, schedule: Q01DX001 (ip), vehicle: saline with Tween-80
[8] = dose: 25.0 mg/kg/injection, schedule: Q01DX009 (ip), vehicle: saline
[9] = dose: 100.0 mg/kg/injection, schedule: Q04DX003 (ip), vehicle: saline with Tween-80
[10] = dose: 100.0 mg/kg/injection, schedule: Q04DX002 (ip), vehicle: saline
[11] = dose: 200.0 mg/kg/injection, schedule: Q04DX002 (ip), vehicle: saline
[12] = dose: 50.0 mg/kg/injection, schedule: Q01DX009 (ip), vehicle: Klucel (hydroxypropylcellulose) (HPC)
[13] = dose: 100.0 mg/kg/injection, schedule: Q01DX009 (ip), vehicle: Klucel (hydroxypropylcellulose) (HPC)
[14] = dose: 200.0 mg/kg/injection, schedule: Q01DX009 (ip), vehicle: Klucel (hydroxypropylcellulose) (HPC)

Measured: T/C

COc1ccc2c(c1)CCC1C2=CCS1(=O)=O (centres undefined)
inactive: [1] 103 % of control | [2] 94 % of control | [3] 92 % of control

COc1ccc(/C=C/c2nc(Nc3ccc(S(N)(=O)=O)cc3)c3ccccc3n2)cc1
inactive: dose: 50.0 mg/kg/injection, schedule: Q01DX009 (ip), vehicle: acetone 102 % of control | dose: 100.0 mg/kg/injection, schedule: Q01DX009 (ip), vehicle: acetone 99 % of control | dose: 200.0 mg/kg/injection, schedule: Q01DX009 (ip), vehicle: acetone 96 % of control

COc1cc2cc(c1Cl)N(C)C(=O)CC(OC(=O)C(C)N(C)C(=O)C(C)C)C1(C)OC1C(C)C1CC(OC)(NC(=O)O1)C(OC)/C=C/C=C(C)C2OC (centres undefined)
inactive: dose: 16.0 mg/kg/injection, schedule: Q01DX009 (ip), vehicle: saline 98 % of control | dose: 32.0 mg/kg/injection, schedule: Q01DX009 (ip), vehicle: saline 114 % of control | dose: 64.0 mg/kg/injection, schedule: Q01DX009 (ip), vehicle: saline 100 % of control | dose: 128.0 mg/kg/injection, schedule: Q01DX009 (ip), vehicle: saline 100 % of control | dose: 4.0 micrograms/kg/injection, schedule: Q01DX009 (ip), vehicle: saline 99 % of control | dose: 8.0 micrograms/kg/injection, schedule: Q01DX009 (ip), vehicle: saline 99 % of control | dose: 16.0 micrograms/kg/injection, schedule: Q01DX009 (ip), vehicle: saline 103 % of control | dose: 32.0 micrograms/kg/injection, schedule: Q01DX009 (ip), vehicle: saline 111 % of control

CC(=O)N(CCCCCCN(C(C)=O)C(C)=O)C(C)=O
inactive: [4] 96 % of control | [5] 105 % of control | dose: 200.0 mg/kg/injection, schedule: Q01DX005 (ip), vehicle: Klucel (hydroxypropylcellulose) (HPC) 92 % of control | dose: 400.0 mg/kg/injection, schedule: Q01DX005 (ip), vehicle: Klucel (hydroxypropylcellulose) (HPC) 94 % of control

CCN(CC)c1ccc2cc(S(=O)(=O)c3ccc(C)cc3)c(=O)oc2c1
inactive: [1] 96 % of control

CC(C)CCCC(C)CCOCCN1CCCCC1 (centres undefined)
inactive: dose: 12.5 mg/kg/injection, schedule: Q01DX005 (ip), vehicle: saline with Tween-80 100 % of control | dose: 25.0 mg/kg/injection, schedule: Q01DX005 (ip), vehicle: saline with Tween-80 113 % of control | [1] 109 % of control and 114 % of control

Cc1cc(=O)c2c(ccc3[nH]c(-c4ccco4)nc32)[nH]1
inactive: [6] 94 % of control | [7] 100 % of control | dose: 400.0 mg/kg/injection, schedule: Q01DX001 (ip), vehicle: saline with Tween-80 92 % of control

CC1CN1P(=O)(N1CC2CCC(CC2)C1)N1CC1C (centres undefined)
inactive: dose: 6.25 mg/kg/injection, schedule: Q01DX009 (ip), vehicle: saline 109 % of control | dose: 12.5 mg/kg/injection, schedule: Q01DX009 (ip), vehicle: saline 95 % of control | [8] 104 % of control | [9] 122 % of control | dose: 200.0 mg/kg/injection, schedule: Q04DX003 (ip), vehicle: saline with Tween-80 90 % of control

C/[N+]([O-])=C1\C(C2COC(C)(C)O2)OC2OC(C)(C)OC12 (centres undefined)
inactive: [10] 97 % of control | [11] 107 % of control | dose: 400.0 mg/kg/injection, schedule: Q04DX002 (ip), vehicle: saline 105 % of control

Cc1cc2c(c(Br)c1O)Oc1c(cc(C)c(O)c1Br)C21OC(=O)c2ccccc21
inactive: [1] 110 % of control | [2] 106 % of control | [3] 105 % of control

CCCCCCCCCCCCNC(=O)C[n+]1cccc(C(=O)Nc2ccccc2)c1
inactive: dose: 3.0 mg/kg/injection, schedule: Q01DX009 (ip), vehicle: saline with Tween-80 100 % of control | dose: 6.0 mg/kg/injection, schedule: Q01DX009 (ip), vehicle: saline with Tween-80 104 % of control | dose: 12.0 mg/kg/injection, schedule: Q01DX009 (ip), vehicle: saline with Tween-80 95 % of control

CCOC(=O)c1ccc(N=Cc2cccc([N+](=O)[O-])c2)cc1
inactive: dose: 60.0 mg/kg/injection, schedule: Q01DX005 (ip), vehicle: saline with Tween-80 91 % of control | dose: 120.0 mg/kg/injection, schedule: Q01DX005 (ip), vehicle: saline with Tween-80 89 % of control | dose: 240.0 mg/kg/injection, schedule: Q01DX005 (ip), vehicle: saline with Tween-80 90 % of control

O=C(CCBr)c1ccc(Cl)cc1
inactive: dose: 25.0 mg/kg/injection, schedule: Q04DX003 (ip), vehicle: saline with Tween-80 107 % of control | dose: 50.0 mg/kg/injection, schedule: Q04DX003 (ip), vehicle: saline with Tween-80 103 % of control | [9] 100 % of control

CC(=O)OC1CCC2C3CCC4CC(=O)CCC4(C)C3CCC12C (centres undefined)
inactive: dose: 25.0 mg/kg/injection, schedule: Q01DX009 (ip), vehicle: saline with Tween-80 91 % of control | dose: 50.0 mg/kg/injection, schedule: Q01DX009 (ip), vehicle: saline with Tween-80 97 % of control | dose: 100.0 mg/kg/injection, schedule: Q01DX009 (ip), vehicle: saline with Tween-80 97 % of control | dose: 200.0 mg/kg/injection, schedule: Q01DX009 (ip), vehicle: saline with Tween-80 100 % of control

OC1CCN(c2c3ccccc3nc3ccccc23)CC1
inactive: dose: 12.5 mg/kg/injection, schedule: Q04DX002 (ip), vehicle: saline 105 % of control | dose: 25.0 mg/kg/injection, schedule: Q04DX002 (ip), vehicle: saline 113 % of control

CC1CC(=O)c2cc(-c3ccccc3)oc2C1 (centres undefined)
inactive: [12] 115 % of control | [13] 102 % of control | [14] 97 % of control

OCCN(CCO)CCCCCCN(CCO)CCO
inactive: [8] 98 % of control | dose: 50.0 mg/kg/injection, schedule: Q01DX009 (ip), vehicle: saline 104 % of control | dose: 100.0 mg/kg/injection, schedule: Q01DX009 (ip), vehicle: saline 107 % of control | dose: 200.0 mg/kg/injection, schedule: Q01DX009 (ip), vehicle: saline 113 % of control

OC1CCC(O)C1(Cl)Cl (centres undefined)
inactive: dose: 25.0 mg/kg/injection, schedule: Q04DX003 (ip), vehicle: saline 99 % of control and 96 % of control | dose: 50.0 mg/kg/injection, schedule: Q04DX003 (ip), vehicle: saline 98 % of control and 107 % of control | dose: 100.0 mg/kg/injection, schedule: Q04DX003 (ip), vehicle: saline 98 % of control and 103 % of control and 118 % of control | dose: 200.0 mg/kg/injection, schedule: Q04DX003 (ip), vehicle: saline 98 % of control and 101 % of control and 124 % of control | dose: 400.0 mg/kg/injection, schedule: Q04DX003 (ip), vehicle: saline 117 % of control

C/C=C(\C)C(=O)OC1C(O)C(C)(C)C2C3C(=O)C=C(C)C2C3(C)C1OC(=O)/C(C)=C/C (centres undefined)
inactive: dose: 12.5 mg/kg/injection, schedule: Q01DX009 (ip), vehicle: Klucel (hydroxypropylcellulose) (HPC) 103 % of control | dose: 25.0 mg/kg/injection, schedule: Q01DX009 (ip), vehicle: Klucel (hydroxypropylcellulose) (HPC) 100 % of control | [12] 103 % of control | [13] 103 % of control

C=CCNC(=S)Nc1ccc(NC(C)=O)c(OC)c1
inactive: [12] 102 % of control | [13] 102 % of control | [14] 86 % of control

CC1OCC(Br)([N+](=O)[O-])CO1 (centres undefined)
inactive: dose: 3.12 mg/kg/injection, schedule: Q01DX009 (ip), vehicle: saline with Tween-80 104 % of control and 110 % of control | dose: 6.25 mg/kg/injection, schedule: Q01DX009 (ip), vehicle: saline with Tween-80 108 % of control and 112 % of control | dose: 12.5 mg/kg/injection, schedule: Q01DX009 (ip), vehicle: saline with Tween-80 100 % of control and 103 % of control and 113 % of control

CCN(CC)C(=O)N1CC1
inactive: [10] 102 % of control | [11] 100 % of control

CN(C)CN1C(=O)CC(c2ccccc2)C1=O (centres undefined)
inactive: dose: 50.0 mg/kg/injection, schedule: Q01DX005 (ip), vehicle: saline 110 % of control | dose: 100.0 mg/kg/injection, schedule: Q01DX005 (ip), vehicle: saline 107 % of control | dose: 200.0 mg/kg/injection, schedule: Q01DX005 (ip), vehicle: saline 115 % of control

CC(C)Cn1c(C(C)C)nc([N+](=O)[O-])c1Sc1ncn[nH]1
inactive: dose: 25.0 mg/kg/injection, schedule: Q01DX005 (ip), vehicle: Klucel (hydroxypropylcellulose) (HPC) 108 % of control | [4] 108 % of control and 118 % of control | [5] 123 % of control

S=P1(CNc2ccccc2)CN(c2ccccc2)CN(c2ccccc2)C1
inactive: dose: 50.0 mg/kg/injection, schedule: Q01DX001 (ip), vehicle: saline with Tween-80 100 % of control | [6] 95 % of control | [7] 100 % of control
